From patent publication US4145554A, “3-Nitropyrazole derivatives” (Eli Lilly and Company, priority 1977, dated 1979)
In brackets after ≈: the same amount, converted by molar mass. Read-outs that look alike come from different tables or passages of the source.

How the values were obtained:
H. meleagridis [1] = experiment: Blackhead in poultry, chicks; type: in vivo
Procedure: (§1) One- to three-week-old chicks and turkey poults were obtained from homogeneous source flocks and allocated into treatment groups. Some groups were held as infected, untreated controls, and other groups were treated with 3-nitropyrazoles by administering the compounds in the birds' feed. Various concentrations of the pyrazoles were administered to determine the least concentration which protected the birds. A few days after the administration of medicated feed began, all of the birds were challenged by rectally administering a suspension of at least 5,000 H. meleagridis protozoa per chick. The challenge organisms had been originally obtained from infected chickens, and were grown in vitro to provide a supply of organisms for testing.
(§2) The birds were held for about seven days after the challenge was administered, during which time the administration of pyrazole-medicated feed was continued. Then all of the chicks, including the untreated, infected controls, were sacrificed and necropsied. The cecum and the liver of each bird were examined for characteristic H. meleagridis lesions.
(§3) For each compound, the lowest feed concentration which gave an active response is indicated. While feed consumption data were not taken during the tests, the birds ate at such a rate that a feed concentration of 0.02 percent is equivalent to a treatment rate of about 10 mg./kg./day.

Streptococcus sp. 80 = experiment: in vitro tube dilution test (MIC); type: cell-based; conditions: Streptococcus sp. 80, tube dilution; read-out: MIC
From the text: (§4) Other compounds of our invention have also been tested in the tube dilution test and shown to have in vitro activity against a number of microorganisms. The table below reports tests of a number of exemplary compounds against exemplary microorganisms. The compounds are identified by their numbers in the listing above. The data are reported as the MIC in micrograms per milliliter against the named exemplary microorganisms.

Salmonella typhimurium = experiment: Salmonellosis in chickens, single injection to day-old chicks; type: in vivo; conditions: for responders at 60 mg/kg: Salmonella enterica, TYPHIMURIUM, 168 h, single injection of 60 mg./kg., seven days, read-out: Survival (converted)
Procedure: A number of our 3-nitropyrazoles have been tested against an induced infection of Salmonella typhimurium in day-old chicks. The test was conducted by administering a single injection of 60 mg./kg. of the compounds to each of five chicks. The following day, the chicks were challenged by the subcutaneous injection of a dispersion of S. typhimurium organisms sufficient to kill most or all of the untreated control chicks.
Some of the compounds were tested more than once, in which instances the data are reported as the total survivors from the multiple treatment groups. Untreated, challenged control groups of chicks were tested together with each batch of groups of chicks to which test compounds were administered. Since the mortality of the untreated control chicks varied somewhat from one group of tests to another, results of the untreated control groups are reported below with each test.

Mycoplasma gallisepticum = experiment: in vitro tube dilution test (MIC); type: cell-based; conditions: Mycoplasmoides gallisepticum; Mycoplasma gallisepticum, tube dilution; read-out: MIC
From the text: (§5) Our compound, 1-(2-hydroxyethyl)-3-nitro-4-pyrazolecarboxamide, has been extensively tested in vitro to determine the range of microorganisms against which it is active. The table of data below reports the minimum inhibitory concentration (MIC) at which the compound is effective in controlling a variety of microorganisms in a standard tube dilution test system. The MIC is reported as micrograms of compound per milliliter.
as §4

Escherichia coli = experiment: in vitro tube dilution test (MIC); type: cell-based; conditions: tube dilution, read-out: MIC
From the text: as §5, §4

Salmonella dublin = experiment: in vitro tube dilution test (MIC); type: cell-based; conditions: Salmonella enterica; Salmonella dublin, tube dilution; read-out: MIC
From the text: (§6) The other preferred compounds of our invention have also been thoroughly tested in the in vitro tube dilution test.
as §4

[2] = tested on: Staphylococcus aureus sp. 1130; experiment: in vitro tube dilution test (MIC); type: cell-based; conditions: read-out: MIC
From the text: as §6, §4

Vibrio coli 3811 = experiment: in vitro tube dilution test (MIC); type: cell-based; conditions: Campylobacter coli; Vibrio coli 3811, tube dilution; read-out: MIC
From the text: as §6, §4

Erwinia amylovora = experiment: Fire blight of pear, in vivo greenhouse test
Procedure: An in vivo test was conducted against the fire blight organism, Erwinia amylovora. Plants infected with E. amylovora were sprayed with aqueous dispersions containing 100 ppm. and 500 ppm. of the test compounds. […] The compounds are identified below by their compound numbers in the above listing.

H. meleagridis [3] = experiment: Blackhead in poultry, turkeys; type: in vivo
Procedure: as §1, §2, §3

avian E. coli = experiment: Colibacillosis in chickens, medicated feed; type: in vivo; conditions: 300 gm./ton feed; about 5 weeks old; 10^-2 dilution challenge; first test
Pseudomonas sp. = experiment: in vitro tube dilution test (MIC); type: cell-based
From the text: as §5, §6

Mycoplasma hyorhinis = experiment: in vitro tube dilution test (MIC); type: cell-based
From the text: as §5, §6

Pasteurella multocida = experiment: in vitro tube dilution test (MIC); type: cell-based; conditions: tube dilution, read-out: MIC
From the text: as §5, §6, §4

S. typhimurium = experiment: Salmonella typhimurium in chickens, medicated feed; type: in vivo, chicks; conditions: Test C, 200 gm./ton feed
[4] = tested on: Mycoplasma gallisepticum 38502; experiment: in vitro tube dilution test (MIC); type: cell-based; conditions: Mycoplasmoides gallisepticum; Mycoplasma gallisepticum 38502, tube dilution
From the text: as §6

[5] = tested on: Staphylococcus aureus 3055; experiment: in vitro tube dilution test (MIC); type: cell-based; conditions: Staphylococcus aureus 3055, tube dilution
From the text: as §6

E. coli = experiment: Tests in mice, E. coli infection; type: in vivo; conditions: for ED50: Escherichia coli, sc, subcutaneous, 1 and 5 hours post-inoculation; for Days Survived: two subcutaneous doses of 83 mg./kg., 1 and 5 hours
Procedure: (§7) Groups of laboratory mice were inoculatd with E. coli or with Streptococcus pyogenes. The 3-nitropyrazoles were administered in two different modes to the infected mice. In one group of tests, the compound was administered in two subcutaneous doses of 83 mg./kg. each, given 1 and 5 hours after the mice were inoculated with the organism. The mice were observed, and the results reported below as the number of days the treated mice survived the challenge.
(§8) In the other group of tests, the dose of each compound which allowed 50 percent of the treated mice to survive the challenge was determined. Again, the compound was administered in subcutane divided doses, 1 and 5 hours post-inoculation.

Streptococcus pyogenes = experiment: Tests in mice, Streptococcus pyogenes infection; type: in vivo; conditions: S. pyogenes, two subcutaneous doses of 83 mg./kg., 1 and 5 hours
Procedure: as §7, §8

[6] = tested on: Salmonella heidelburg 1593; experiment: in vitro tube dilution test (MIC); type: cell-based; conditions: Salmonella heidelburg 1593, tube dilution
From the text: as §5, §6

Salmonella pullorum Ill. = experiment: in vitro tube dilution test (MIC); type: cell-based; conditions: Salmonella enterica
From the text: as §5, §6

[7] = tested on: Salmonella typhimurium 1335; experiment: in vitro tube dilution test (MIC); type: cell-based; conditions: Salmonella enterica; Salmonella typhimurium 1335, tube dilution
From the text: as §5, §6

Mycoplasma synoviae = experiment: in vitro tube dilution test (MIC); type: cell-based; conditions: Mycoplasmopsis synoviae, footnote 1: M. synoviae
From the text: as §5, §4

E. amylovora = experiment: Fire blight of apple, induced infection of McIntosh apple seedlings; type: in vivo; conditions: 6 days, scale 1 (symptoms in main stem) to 4 (complete control)
From the text: A typical test of one of our compounds against an induced E. amylovora infection of McIntosh apple seedlings will be reported. The compound, [2-(4-carbamoyl-3-nitropyrazol-1-yl)ethyl] phenyl carbonate, was sprayed on the seedlings as an aqueous dispersion at the concentrations shown below. Four replicate trees were used per treatment. After the spray had dried, each tree was challenged by punching a hole through the midvein at the tip of one leaf per plant, and placing a drop of an E. amylovora culture in the hole.
After 6 days, the trees were observed, and the control of the infection was rated on the following scale.
1 = disease symptoms in main stem
2 = disease symptoms in petiole
3 = disease symptoms in the leaf only
4 = complete control of disease
The results are shown below as the mean disease control rating.

[8] = tested on: mycoplasma which causes aster yellows; experiment: Aster yellows disease test; type: in vivo, aster plants; conditions: 20 days
From the text: The following data report a test of an exemplary compound against aster yellows disease. The compound, [2-(4-carbamoyl-3-nitropyrazol-1-yl)ethyl] phenyl carbonate, was applied to aster plants as an aqueous dispersion at concentrations shown below. Two plants were sprayed with each concentration. Each pair of plants was placed in a wire mesh cage, and four leafhoppers infected with the mycoplasma which causes aster yellows were placed in each cage. After 20 days, the plants were observed and disease control was rated as the percent of the plants' surface affected by the disease.

[9] = Staphylococcus aureus sp. 1130, tube dilution
[10] = Staphylococcus aureus, SP.1130, Staphyloccocus 1130, tube dilution

| Structure (SMILES) | Active Level (lowest feed concentration which gave an active response) (H. meleagridis [1]) | MIC (Streptococcus sp. 80) [µg/mL] | MIC (Mycoplasma gallisepticum) [µg/mL] | MIC (Escherichia coli) [µg/mL] | MIC (Salmonella dublin) [µg/mL] | MIC [2, 9] [µg/mL] | MIC (Vibrio coli 3811) [µg/mL] | responders at 60 mg/kg (Salmonella typhimurium) [%] | MIC (Pasteurella multocida) [µg/mL] | further results |
| --- | --- | --- | --- | --- | --- | --- | --- | --- | --- | --- |
| CNc1nnc(-c2cn(C)nc2[N+](=O)[O-])s1 [Compound 2, 2-(1-methyl-3-nitro-4-pyrazolyl)-5-methylamino-1,3,4-thiadiazole] | .02% | 50 (≈ 208 µM) | 6.25 (≈ 26 µM) | 50 (≈ 208 µM) | 50 (≈ 208 µM) | 50 (≈ 208 µM) | 25 (≈ 104 µM) |  |  | chicks protected of the 5-bird treated group (Salmonella typhimurium; salmonella challenge): at least three chicks of the 5-bird treated group |
| Cn1cc(C(N)=O)c([N+](=O)[O-])n1 [Compound 3, 1-methyl-3-nitro-4-pyrazolecarboxamide] | .02% | 100 (≈ 588 µM) | 50 (≈ 294 µM) | 12.5 (≈ 73.5 µM) | 6.25 (≈ 36.7 µM) | 12.5 (≈ 73.5 µM) | 6.25 (≈ 36.7 µM) |  |  | Percent Control of fire blight (Erwinia amylovora; 100 ppm.): 25%; Percent Control of fire blight (Erwinia amylovora; 500 ppm.): 75% |
| NC(=O)c1cn(CCc2ccccc2)nc1[N+](=O)[O-] [Compound 17, 1-phenethyl-3-nitro-4-pyrazolecarboxamide] | .0067% |  |  |  |  |  |  |  |  | Active Level (lowest feed concentration which gave an active response) (H. meleagridis [3]): .02% |
| CCOCCn1cc(C(N)=O)c([N+](=O)[O-])n1 [Compound 34, 1-(2-ethoxyethyl)-3-nitro-4-pyrazolecarboxamide] |  |  |  |  | 25 (≈ 110 µM) |  | 50 (≈ 219 µM) | 40 | 25 (≈ 110 µM) | E. coli Lesions (avian E. coli): 11/30; Mortality (avian E. coli): 0/30; Wt. (avian E. coli): 1136 gm.; Active Level (lowest feed concentration which gave an active response) (H. meleagridis [3]): .02%; MIC (Pseudomonas sp.): 50 µg/mL (≈ 219 µM); MIC (Mycoplasma hyorhinis): 50 µg/mL (≈ 219 µM); Survival (S. typhimurium): 25/48; Avg. Wt. (S. typhimurium; surviving chicks): 62 gm.; MIC [4]: 50 µg/mL (≈ 219 µM); MIC [5]: 100 µg/mL (≈ 438 µM); MIC [2, 10]: 6.25 µg/mL (≈ 27.4 µM); ED50 (E. coli): > 41 mg/kg; Days Survived (E. coli): 7.0 days; Days Survived (Streptococcus pyogenes): 5.0 days; Percent Control of fire blight (Erwinia amylovora; 100 ppm.): 33%; Percent Control of fire blight (Erwinia amylovora; 500 ppm.): 66% |
| CNC(=O)c1cn(CCO)nc1[N+](=O)[O-] [Compound 58, 1-(2-hydroxyethyl)-N-methyl-3-nitro-4-pyrazolecarboxamide] |  |  |  |  | 12.5 (≈ 58.4 µM) |  | 25 (≈ 117 µM) | 90 | 0.78 (≈ 3.64 µM) | MIC (Pseudomonas sp.): 25 µg/mL (≈ 117 µM); MIC [6]: 12.5 µg/mL (≈ 58.4 µM); MIC (Salmonella pullorum Ill.): 3.12 µg/mL (≈ 14.6 µM); MIC [7]: 12.5 µg/mL (≈ 58.4 µM); MIC [4]: 6.25 µg/mL (≈ 29.2 µM); MIC [5]: 10 µg/mL (≈ 46.7 µM); MIC [2, 10]: 12.5 µg/mL (≈ 58.4 µM); ED50 (E. coli): 40 mg/kg; Days Survived (E. coli): 7.0 days; Days Survived (Streptococcus pyogenes): 1.8 days |
| COCCn1cc(C(N)=O)c([N+](=O)[O-])n1 [Compound 65, 1-(2-methoxyethyl)-3-nitro-4-pyrazolecarboxamide] | .02% | > 50 | 50 (≈ 233 µM) | 12.5 (≈ 58.4 µM) | 12.5 (≈ 58.4 µM) | 50 (≈ 233 µM) | 50 (≈ 233 µM) | 70 | 50 (≈ 233 µM) |  |
| COC(=O)c1cn(CCO)nc1[N+](=O)[O-] [Compound 71, methyl 1-(2-hydroxyethyl)-3-nitro-4-pyrazolecarboxylate] |  | > 50 |  | > 50 | > 50 | > 50 | > 50 |  | > 50 | MIC (Mycoplasma synoviae): 0.39 µg/mL (≈ 1.81 µM) |
| NC(=O)c1cn(CCOC(=O)Oc2ccccc2)nc1[N+](=O)[O-] [Compound 77, [2-(4-carbamoyl-3-nitropyrazol-1-yl)ethyl] phenyl carbonate] | .02% |  |  |  |  |  |  | 80 |  | mean disease control rating (E. amylovora; 200 ppm.): 2.5; mean disease control rating (E. amylovora; 400 ppm.): 3.5; mean disease control rating (E. amylovora; 600 ppm.): 3.0; mean disease control rating (E. amylovora; 800 ppm.): 3.4; mean disease control rating (E. amylovora; 1000 ppm.): 3.5; mean disease control rating (E. amylovora; 1200 ppm.): 3.5; Percent Infection (percent of plants' surface affected) ([8]; Concentration 200 (unit not given)): 0%; Percent Infection (percent of plants' surface affected) ([8]; Concentration 400 (unit not given)): 25%; Percent Infection (percent of plants' surface affected) ([8]; Concentration 800 (unit not given)): 0% |
| NC(=O)c1cn(CC2CC2)nc1[N+](=O)[O-] [Compound 90, 1-cyclopropylmethyl-3-nitro-4-pyrazolecarboxamide] | .02% | > 50 | > 50 | 50 (≈ 238 µM) | 50 (≈ 238 µM) | 50 (≈ 238 µM) | 50 (≈ 238 µM) | 80 | 25 (≈ 119 µM) |  |
